Reference: US20070260088A1, “Calcium Trifluoroacetate for Preparing Antiangiogenetic Medicaments” (priority 2004, published 2007)

Columns and labels:
tumor growth = settings: disclosed in EP 1 423 131; cited from earlier work
solid tumor cells = settings: disclosed in EP 1 423 131; cited from earlier work
endothelial cells = assay: effect of endothelial growth factors on calcium entrance into single endothelial cells; format: cell-based
[1] = system: VEGF-induced angiogenesis in Matrigel plugs; assay: murine model of angiogenesis induced by subcutaneous implant of Matrigel containing VEGF; format: in vivo, mouse; settings: for reduction in angiogenesis (morphometric analysis, percentage of area covered by vessels): VEGF 40 ng/ml in Matrigel, plugs removed after 7 days, vs VEGF alone
Experimental: The effect of calcium trifluoroacetate in angiogenesis was evidenced in a murine model of angiogenesis induced by a subcutaneous implant of Matrigel. Matrigel is liquid at 4° C. and solid at 37° C., so that a pro-angiogenetic stimulus can be mixed with Matrigel and inoculated. In this protocol, the selected angiogenetic factor was […], added to the Matrigel together with 16 U/ml heparin, as described in literature (Bussolati B, Altered angiogenesis and survival in human tumor-derived endothelial cells. FASEB J. 2003; Bussolati B, Vascular endothelial growth factor receptor-1 modulates vascular endothelial growth factor-mediated angiogenesis via nitric oxide. Am J Pathol. 2001).
Calcium trifluoroacetate was administered intraperitoneally 30 minutes before Matrigel, then on alternate days (day 2, 4, 6), at a dose of 2 or 4 μg/mouse (0.2 mg/Kg). After 7 days, the animals were killed and the Matrigel plugs were removed for histological examination. Angiogenesis was evaluated by computer assisted morphometric analysis of the percentage of area covered by vessels.
This strong antiangiogenic effect could already be observed macroscopically and confirmed histologically.

[2] = system: endothelium proliferation; assay: endothelium proliferation; format: cell-based

O=C([O-])C(F)(F)F.O=C([O-])C(F)(F)F.[Ca+2] [calcium trifluoroacetate]
tumor growth in animal experimental models (tumor growth): inhibit tumor growth | in vitro cytotoxic activity on solid tumor cells (solid tumor cells): cytotoxic activity | effect of endothelial growth factors on calcium entrance into single endothelial cells (endothelial cells): able to block, at least partly | reduction in angiogenesis (morphometric analysis, percentage of area covered by vessels) ([1]; 2 μg/mouse intraperitoneally on alternate days): above 40% | reduction in angiogenesis (morphometric analysis, percentage of area covered by vessels) ([1]; 4 μg/mouse intraperitoneally on alternate days): 80% | effect of VEGF on angiogenesis in Matrigel plugs (macroscopic and histological) ([1]; mice treated with calcium trifluoroacetate, VEGF 40 ng/ml): dramatically reduced | action on endothelium proliferation [2]: evident inhibitory action
